From US9150592B2, “Heterocyclic nuclear hormone receptor modulators” (AbbVie Inc., priority 2012, dated 2015)

How the values were obtained:
[1] = system: IL-6 in A549 cells stimulated with IL-1β; test: A549 Cell Assay to Measure Inflammation Markers (inhibition of IL-1β-induced IL-6); assay type: cell-based; details: intrinsic activity, Emax class ranges; for Emax: Homo sapiens, A549, A549 Cell Assay to Measure Inflammation Markers; for A549 Emax: A549 Cell Assay to Measure Inflammation Markers
Summary of the method: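 Compound pre-incubated with A549 cells 1 h at 37 °C, then stimulated with IL-1β (1 ng/mL final, 0.1% DMSO). Supernatant IL-6 quantified by MSD immunoassay after a further incubation. IC50 and Emax derived.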

[2] = target: T1, Glucocorticoid Receptor (GR) (Homo sapiens, UniProt P04150); test: GR Fluorescence Polarization Assay (PolarScreen Glucocorticoid Receptor Competitor Assay, Red); details: IC50 class ranges, read-out: GR binding
T1 construct: purchased Invitrogen P2893
T1 sequence (P04150 1-777): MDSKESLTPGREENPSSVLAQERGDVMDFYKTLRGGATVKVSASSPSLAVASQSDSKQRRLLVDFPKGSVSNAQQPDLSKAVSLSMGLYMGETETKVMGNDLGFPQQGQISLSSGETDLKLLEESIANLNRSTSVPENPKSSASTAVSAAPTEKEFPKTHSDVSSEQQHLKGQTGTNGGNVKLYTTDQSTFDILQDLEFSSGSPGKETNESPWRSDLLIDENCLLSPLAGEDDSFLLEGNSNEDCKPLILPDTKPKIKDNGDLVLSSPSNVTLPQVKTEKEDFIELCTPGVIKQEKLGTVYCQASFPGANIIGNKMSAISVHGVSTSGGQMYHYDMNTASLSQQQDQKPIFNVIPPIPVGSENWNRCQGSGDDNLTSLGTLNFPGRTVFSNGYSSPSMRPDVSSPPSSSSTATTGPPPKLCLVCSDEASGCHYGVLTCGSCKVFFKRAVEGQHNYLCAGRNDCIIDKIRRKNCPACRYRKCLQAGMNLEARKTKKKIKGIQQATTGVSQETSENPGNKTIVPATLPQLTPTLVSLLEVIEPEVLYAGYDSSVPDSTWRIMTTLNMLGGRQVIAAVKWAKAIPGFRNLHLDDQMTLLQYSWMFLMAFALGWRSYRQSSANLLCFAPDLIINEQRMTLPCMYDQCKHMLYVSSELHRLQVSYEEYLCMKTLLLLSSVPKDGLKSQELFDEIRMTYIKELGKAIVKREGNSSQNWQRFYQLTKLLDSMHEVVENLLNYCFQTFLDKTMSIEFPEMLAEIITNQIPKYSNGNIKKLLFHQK
Summary of the method: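 Competitive fluorescence-polarization assay using a red fluorescent glucocorticoid tracer with human GR in kit buffer. Compounds serially diluted 1:4 in DMSO, incubated with tracer and GR overnight at 4° C, then polarization read.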

Compound | Emax [1] | IC50 [2] | A549 Emax [1]
CCn1nc(-c2ccccn2)c2c1N[C@H](C)CS[C@H]2c1ccc(CCCO)cc1C (single isomer, unassigned) [M.35, 3-(4-(1-ethyl-7-methyl-3-(pyridin-2-yl)-4,6,7,8-tetrahydro-1H-pyrazolo[3,4-e][1,4]thiazepin-4-yl)-3-methylphenyl)propan-1-ol] | > 70% | < 100 nM | 
Cn1nc(-c2cc(F)cc(F)c2)c2c1NCCSC2c1ccc(Cl)cc1Cl (centres unmarked) [D.90] | < 50% | < 100 nM | 
Cc1cc(Cl)ccc1C1SC(CCO)C(C)Nc2c1c(C)nn2C (single isomer, unassigned) | > 70% | 100 to 1000 nM | 
Cc1cc(C#N)ccc1C1SC(C)(C)CNc2c1c(C)nn2C (centres unmarked) [G.6] | < 50% | 100 to 1000 nM | 
Cc1cc(Br)ccc1C1SC(C)CNc2c1c(C1CC1)nn2C (centres unmarked) [D.52] |  | < 100 nM | D (a compound with Emax<50%)
Cc1cc(Br)ccc1C1SC(C)(C)CNc2c1c(C)nn2C (centres unmarked) [D.58, 4-(4-bromo-2-methyl-phenyl)-1,3,6,6-tetramethyl-7,8-dihydro-4H-pyrazolo[3,4-e][1,4]thiazepine] | > 50% | < 100 nM | 
Cc1cc(-c2nn(C)c3c2C(c2ccc(Br)cc2C)SCCN3)on1 (centres unmarked) [D.29] | < 50% | < 100 nM | 
Cc1cc(CCC(C)(C)O)ccc1[C@@H]1SC[C@H](C)Nc2c1c(-c1ccccn1)nn2C (single isomer, unassigned) [M.42, 4-(4-(1,7-dimethyl-3-(pyridin-2-yl)-4,6,7,8-tetrahydro-1H-pyrazolo[3,4-e][1,4]thiazepin-4-yl)-3-methylphenyl)-2-methylbutan-2-ol] | > 60% | < 100 nM | 
COc1cc(Cl)ccc1C1SCCNc2c1c(-c1ccccn1)nn2C (centres unmarked) [D.5] | < 50% | < 100 nM | 
Cc1nn(C)c2c1C(c1ccc(Cl)cc1)SC(CCO)CN2 (centres unmarked) [D.68, 2-(4-(4-chlorophenyl)-1,3-dimethyl-4,6,7,8-tetrahydro-1H-pyrazolo[3,4-e][1,4]thiazepin-6-yl)ethanol 2,2,2-trifluoracetate] | < 50% | < 100 nM | 
Cc1nn(C)c2c1C(c1ccc(Cl)cc1Cl)SC(C)(C)CN2CC(O)C(F)(F)F (centres unmarked) | < 50% | > 10000 nM | 
Cn1nc(-c2ccncc2)c2c1NCCSC2c1ccc(Cl)cc1Cl (centres unmarked) [D.18] | < 50% | 100 to 1000 nM | 
Cn1nc(C(C)(C)C)c2c1NCCSC2c1ccc(Cl)cc1Cl (centres unmarked) [D.85] | < 50% | 100 to 1000 nM | 
Cc1cc(Br)ccc1C1SC(C)CNc2c1c(C)nn2C (centres unmarked) [D.62, 4-(4-bromo-2-methyl-phenyl)-1,3,6-trimethyl-4,6,7,8-tetrahydropyrazolo[3,4-e][1,4]thiazepine] | < 50% | 100 to 1000 nM | 
Cc1cc(OCc2cccnc2)ccc1C1SCCNc2c1c(-c1ccccn1)nn2C (centres unmarked) | < 50% | 100 to 1000 nM | 
Cc1cc(C#CCO)ccc1[C@@H]1SC[C@@H](C)Nc2c1c(-c1ccccn1)nn2C (single isomer, unassigned) [M.70, 3-(4-(1,7-dimethyl-3-(pyridin-2-yl)-4,6,7,8-tetrahydro-1H-pyrazolo[3,4-e][1,4]thiazepin-4-yl)-3-methylphenyl)prop-2-yn-1-ol] | < 50% | < 100 nM | 
Cc1cc(Cl)ccc1[C@H]1SC(C)(C)CNc2c1c(C1CC1)nn2C | > 60% | < 100 nM | 
CCn1nc(-c2ccccn2)c2c1N[C@H](C)CS[C@H]2c1ccc(C#CCO)cc1C (single isomer, unassigned) [M.27, 3-(4-(1-ethyl-7-methyl-3-(pyridin-2-yl)-4,6,7,8-tetrahydro-1H-pyrazolo[3,4-e][1,4]thiazepin-4-yl)-3-methylphenyl)prop-2-yn-1-ol] | > 60% | < 100 nM | 
CCn1nc(-c2ccccn2)c2c1NCCSC2c1ccc(C(=O)Nc2cc(C)no2)cc1C (centres unmarked) [R.1, 4-(1-ethyl-3-(pyridin-2-yl)-4,6,7,8-tetrahydro-1H-pyrazolo[3,4-e][1,4]thiazepin-4-yl)-3-methyl-N-(3-methylisoxazol-5-yl)benzamide] | < 50% | < 100 nM | 
Cc1cc(Cl)ccc1C1SC(C)(C)CNc2c1c(C)nn2C (centres unmarked) [D.57] | > 50% | < 100 nM | 

Compound | Emax [1] | IC50 [2] | A549 Emax [1]
Cc1cc(Cl)ccc1C1SCCNc2c1c([C@@H]1CCCN1)nn2C (mixture of isomers) | < 50% | 1000 to 10000 nM | 
Cc1cc(Br)ccc1[C@H]1SC[C@H](C(F)(F)F)Nc2c1c(-c1ccccn1)nn2C (racemic) | < 50% | 100 to 1000 nM | 
Cc1sc(Br)cc1C1SCCNc2c1c(-c1ccccn1)nn2C (centres unmarked) [D.34, 4-(5-bromo-2-methyl-3-thienyl)-1-methyl-3-(2-pyridyl)-4,6,7,8-tetrahydropyrazolo[3,4-e][1,4]thiazepine] | < 50% | < 100 nM | 
Cc1cc(OC(F)(F)F)ccc1C1SCCNc2c1c(-c1ccccn1)nn2C (centres unmarked) [D.12] | < 50% | < 100 nM | 
Cc1cc(Cl)ccc1C1SCCNc2c1c(-c1ccccn1)nn2C(C)C (centres unmarked) [D.105] | > 60% | < 100 nM | 
Cc1nn(C)c2c1C(c1ccc(Cl)cc1Cl)SC(C)(C)CN2C=O (centres unmarked) | < 50% | 1000 to 10000 nM | 
CC(C)c1nn(C)c2c1C(c1ccc(Cl)cc1Cl)SC(C)(C)CN2 (centres unmarked) [D.64] | < 50% | 100 to 1000 nM | 
CCn1nc(-c2ccccn2)c2c1NCCSC2c1ccc(C#N)cc1C (single isomer, unassigned) [M.22, 3-methyl-4-(1-ethyl-3-(pyridin-2-yl)-4,6,7,8-tetrahydro-1H-pyrazolo[3,4-e][1,4]thiazepin-4-yl)benzonitrile] | > 70% | < 100 nM | 
CCn1nc(C2CC2)c2c1NCC(C)(C)SC2c1ccc(Cl)cc1C (centres unmarked) [D.107] | < 50% | < 100 nM | 
Cn1nc(-c2ccccn2)c2c1NCC(C)(C)SC2c1ccc(Cl)cc1Cl (centres unmarked) [D.32] | < 50% | < 100 nM | 
Cc1cc(OCC(N)=O)ccc1[C@@H]1SC[C@@H](C)Nc2c1c(-c1ccccn1)nn2C (single isomer, unassigned) [M.24, 2-(4-(1,7-dimethyl-3-(pyridin-2-yl)-4,6,7,8-tetrahydro-1H-pyrazolo[3,4-e][1,4]thiazepin-4-yl)-3-methylphenoxy)acetamide] | > 70% | < 100 nM | 
Cc1cc(Cl)cnc1C1SC(C)(C)CNc2c1c(C1CC1)nn2C (centres unmarked) [D.50] | < 50% | 100 to 1000 nM | 
Cc1cc(Br)ccc1C1SC(C)CNc2c1c(C1CC1)nn2C (centres unmarked) [D.51, 4-(4-bromo-2-methyl-phenyl)-3-cyclopropyl-1,6-dimethyl-4,6,7,8-tetrahydropyrazolo[3,4-e][1,4]thiazepine] | < 50% | 100 to 1000 nM | 
Cc1ncccc1NC(=O)c1ccc(C2SCCNc3c2c(-c2ccccn2)nn3C)c(Cl)c1 (centres unmarked) [F.1, 3-chloro-N-(2-methyl-3-pyridyl)-4-[1-methyl-3-(2-pyridyl)-4,6,7,8-tetrahydropyrazolo[3,4-e][1,4]thiazepin-4-yl]benzamide] | > 70% | < 100 nM | 
CCn1nc(-c2ccccn2)c2c1N[C@H](C)CS[C@H]2c1ccc(C(N)=O)cc1C (single isomer, unassigned) [M.46, 4-(1-ethyl-7-methyl-3-(pyridin-2-yl)-4,6,7,8-tetrahydro-1H-pyrazolo[3,4-e][1,4]thiazepin-4-yl)-3-methylbenzamide] | > 50% | < 100 nM | 
Cc1nn(C)c2c1C(c1ccc3[nH]ncc3c1)SCCN2 (centres unmarked) [D.76] | < 50% | > 10000 nM | 
Cc1cc(CCC(C)(C)O)ccc1[C@@H]1SC[C@@H](C)Nc2c1c(-c1ccccn1)nn2C (single isomer, unassigned) [M.44, 4-(4-(1,7-dimethyl-3-(pyridin-2-yl)-4,6,7,8-tetrahydro-1H-pyrazolo[3,4-e][1,4]thiazepin-4-yl)-3-methylphenyl)-2-methylbutan-2-ol] | > 60% | < 100 nM | 
Cc1ncccc1NC(=O)c1ccc([C@H]2SCCNc3c2c(-c2ccccn2)nn3C)c(Cl)c1 |  | < 100 nM | A (a compound with Emax>70%)
Cc1cc(C(=O)Nc2cccnc2C)ccc1C1SCC(CO)Nc2c1c(-c1ccccn1)nn2C (single isomer, unassigned) | > 70% | < 100 nM | 
CCn1nc(-c2ccccn2)c2c1NC(=O)CCC2c1ccc(Br)cc1C (centres unmarked) [AA.1, 4-(4-Bromo-2-methylphenyl)-1-ethyl-3-(pyridin-2-yl)-4,5,6,8-tetrahydropyrazolo[3,4-b]azepin-7(1H)-one] | < 50% | < 100 nM | 
